Earlier results as cited in publication PMC3066546, “Development of modified nucleosides that have supremely high anti-HIV activity and low toxicity and prevent the emergence of resistant HIV mutants” (Proceedings of the Japan Academy. Series B, Physical and …, 2011).
Like-named read-outs stand apart in the source and are kept apart here.

Experiments:
[1] = tested on: HIV-1LAI; conditions: MTT assay, MT-4 cells
[2] = tested on: MT-4 cells
[3] = tested on: HIV-1wild; design: method as in PMID 18487070; conditions: Table 7; read-out: Anti-HIV activity (MAGI assay, µg) HIV-1wild
[4] = tested on: HIV-1MDR; design: method as in PMID 18487070; conditions: Table 7; read-out: Anti-HIV activity (MAGI assay, µg) HIV-1MDR
[5] = tested on: HIV-1M184V; design: method as in PMID 18487070; conditions: Table 7; read-out: Anti-HIV activity (MAGI assay, µg) HIV-1M184V
[6] = tested on: HXB2 (wild type HIV); design: method as in PMID 11087576, PMID 11577734, PMID 15200030; conditions: MAGI assay
[7] = tested on: KH65R drug-resistant HIV; design: method as in PMID 11087576, PMID 11577734, PMID 15200030; conditions: MAGI assay
[8] = tested on: L74V drug-resistant HIV; design: method as in PMID 11087576, PMID 11577734, PMID 15200030; conditions: MAGI assay
[9] = tested on: 41/215 drug-resistant HIV; design: method as in PMID 11087576, PMID 11577734, PMID 15200030; conditions: MAGI assay
[10] = tested on: M184V drug-resistant HIV; design: method as in PMID 11087576, PMID 11577734, PMID 15200030; conditions: MAGI assay
[11] = tested on: M184I drug-resistant HIV; design: method as in PMID 11087576, PMID 11577734, PMID 15200030; conditions: MAGI assay
[12] = tested on: 41/69/ 125/SG drug-resistant HIV; design: method as in PMID 11087576, PMID 11577734, PMID 15200030; conditions: MAGI assay
[13] = tested on: MDR (multidrug-resistant HIV); conditions: MAGI assay
[14] = tested on: Hela cells
[15] = tested on: ICR mice; conditions: for Mortality (%): six-week-old ICR male mice
[16] = tested on: HIV; design: method as in PMID 7764216; conditions: Table 1; for EC50: anti-HIV
[17] = cytotoxic concentration, Table 1

Structure (SMILES): [N-]=[N+]=N[C@]1(CO)O[C@@H](n2cnc3c(N)ncnc32)C[C@@H]1O [4′-C-azido-2′-deoxyadenosine]
- EC50 ([1]; Table 2): 0.13 µM
- CC50 ([2]; Table 2): 50 µM

Structure (SMILES): [N-]=[N+]=N[C@]1(CO)O[C@@H](n2ccc(N)nc2=O)C[C@@H]1O [4′-C-azido-2′-deoxycytidine]
- EC50 ([1]; Table 2): 0.004 µM
- CC50 ([2]; Table 2): 0.21 µM

Structure (SMILES): Cc1cn([C@H]2C[C@H](O)[C@](CO)(CN=[N+]=[N-])O2)c(=O)[nH]c1=O [4′-C-azidomethylthymidine]
- EC50 ([1]; Table 2): 2.1 µM
- CC50 ([2]; Table 2): 333 µM

Structure (SMILES): Cc1cn([C@H]2C[C@H](O)[C@](CO)(N=[N+]=[N-])O2)c(=O)[nH]c1=O [4′-C-azidothymidine]
- EC50 ([1]; Table 2): 0.01 µM
- CC50 ([2]; Table 2): 8 µM

Structure (SMILES): N#C[C@]1(CO)O[C@@H](n2ccc(N)nc2=O)C[C@@H]1O [4′-C-cyano-2′-deoxycytidine]
- EC50 ([1]; Table 2): 0.0012 µM
- CC50 ([2]; Table 2): 0.17 µM

Structure (SMILES): Cc1cn([C@H]2C[C@H](O)[C@@](C#N)(CO)O2)c(=O)[nH]c1=O [4′-C-cyanothymidine]
- EC50 ([1]; Table 2): 0.002 µM
- CC50 ([2]; Table 2): 1 µM

Structure (SMILES): CC[C@]1(CO)O[C@@H](n2cc(C)c(=O)[nH]c2=O)C[C@@H]1O [4′-C-ethylthymidine]
- EC50 ([1]; Table 2): > 400 µM

Structure (SMILES): C#C[C@]1(CO)O[C@@H](n2cc(C)c(=O)[nH]c2=O)[C@@H](O)[C@@H]1O [4′-C-ethynylarabinofuranosylthymine]
- EC50 ([1]; Table 2): 119 µM
- CC50 [2]: > 400 µM

Structure (SMILES): C#C[C@]1(CO)O[C@@H](n2cc(C)c(=O)[nH]c2=O)C[C@@H]1O [4′-C-ethynylthymidine]
- EC50 ([1]; Table 2): 0.83 µM
- CC50 ([2]; Table 2): > 400 µM

Structure (SMILES): Nc1ccn([C@H]2C[C@H](O)[C@](CO)(CF)O2)c(=O)n1 [4′-C-fluoromethyl-2′-deoxycytidine]
- EC50 ([1]; Table 2): 0.0068 µM
- CC50 ([2]; Table 2): 0.12 µM

Structure (SMILES): Cc1cn([C@H]2C[C@H](O)C(CO)(CO)O2)c(=O)[nH]c1=O [4′-C-hydroxymethylthymidine]
- EC50 ([1]; Table 2): 7 µM
- CC50 ([2]; Table 2): > 400 µM

Structure (SMILES): CO[C@]1(CO)O[C@@H](n2cc(C)c(=O)[nH]c2=O)C[C@@H]1O [4′-C-methoxythymidine]
- EC50 ([1]; Table 2): 8.49 µM
- CC50 ([2]; Table 2): 200 µM

Structure (SMILES): CCC[C@]1(CO)O[C@@H](n2cc(C)c(=O)[nH]c2=O)C[C@@H]1O [4′-C-propylthymidine]
- EC50 ([1]; Table 2): > 100 µM
- CC50 ([2]; Table 2): > 100 µM

Structure (SMILES): C=C[C@]1(CO)O[C@@H](n2cc(C)c(=O)[nH]c2=O)C[C@@H]1O [4′-C-vinylthymidine]
- EC50 ([1]; Table 2): > 400 µM
- CC50 ([2]; Table 2): > 400 µM

Structure (SMILES): C#C[C@]1(CO)O[C@@H](n2cnc3c(N)nc(Cl)nc32)C[C@@H]1O [4′Ed2ClA, 2′-deoxy-4′-C-ethynyl-2-chloroadenosine]
- EC50 [3]: 0.0019 µM
- EC50 [4]: 0.0084 µM
- EC50 [5]: 0.01 µM

Structure (SMILES): C#C[C@]1(CO)O[C@@H](n2cnc3c(O)ncnc32)C[C@@H]1O [4′EdI, 2′-deoxy-4′-C-ethynylinosine]
- EC50 ([1]; Table 3): 0.15 µM
- EC50 [6]: 0.81 µM
- EC50 [7]: 0.25 µM
- EC50 [8]: 0.61 µM
- EC50 [9]: 1.3 µM
- EC50 [10]: 1.6 µM
- EC50 [11]: 1.5 µM
- EC50 [12]: 2.2 µM
- EC50 [13]: 0.51 µM
- CC50 ([2]; Table 3): 216 µM
- CC50 ([14]; Table 4, Hela cells): > 200 µM
- Mortality (%) ([15]; intraveneous administration, 1 mg/Kg): 0%
- Mortality (%) ([15]; intraveneous administration, 3 mg/Kg): 0%
- Mortality (%) ([15]; intraveneous administration, 10 mg/Kg): 0%
- Mortality (%) ([15]; intraveneous administration, 100 mg/Kg): 0%
- Mortality (%) ([15]; oral administration, 1 mg/Kg): 0%
- Mortality (%) ([15]; oral administration, 3 mg/Kg): 0%
- Mortality (%) ([15]; oral administration, 10 mg/Kg): 0%
- Mortality (%) ([15]; oral administration, 100 mg/Kg): 0%
- survival of mice ([15]; single dosage of 3–100 mg kg−1, both intravenous and oral): All eight mice survived

Structure (SMILES): C[C@]1(CO)O[C@@H](n2cnc3c(N)ncnc32)C[C@@H]1O [C00001 Ad, 4′-C-methyl-2′-deoxyadenosine]
- SI (CC50/EC50) [16]: 1.0
- EC50 [16]: 2.6 µM
- EC50 ([1]; Table 2): 2.6 µM
- CC50 [17]: 2.6 µM
- CC50 ([2]; Table 2): 2.6 µM

Structure (SMILES): C[C@]1(CO)O[C@@H](n2ccc(N)nc2=O)C[C@@H]1O [C00001 Cy, 4′-C-methyl-2′-deoxycytidine]
- SI (CC50/EC50) [16]: 1.8
- EC50 [16]: 0.072 µM
- EC50 ([1]; Table 2): 0.015 µM
- EC50 [6]: 0.0058 µM
- EC50 [7]: 0.0071 µM
- EC50 [8]: 0.0062 µM
- EC50 [10]: 0.2 µM
- EC50 [11]: 0.74 µM
- EC50 [13]: 0.0033 µM
- CC50 [17]: 0.13 µM
- CC50 ([2]; Table 2): 1 µM
- CC50 ([14]; Table 4, Hela cells): > 200 µM

Structure (SMILES): Cc1cn([C@H]2C[C@H](O)[C@@](C)(CO)O2)c(=O)[nH]c1=O [C00001 Th, 4′-C-methylthymidine]
- EC50 [16]: 7.2 µM
- EC50 ([1]; Table 2): 7.2 µM
- CC50 [17]: 104 µM
- CC50 ([2]; Table 2): 104 µM

Structure (SMILES): C[C@@]1(CO)C=C[C@H](n2cnc3c(N)ncnc32)O1 [C00002 Ad]
- SI (CC50/EC50) [16]: ∼1
- EC50 [16]: > 500 µM
- CC50 [17]: > 500 µM

Structure (SMILES): C[C@@]1(CO)C=C[C@H](n2ccc(N)nc2=O)O1 [C00002 Cy]
- EC50 [16]: 350 µM
- CC50 [17]: 350 µM

Structure (SMILES): Cc1cn([C@H]2C=C[C@@](C)(CO)O2)c(=O)[nH]c1=O [C00002 Th]
- SI (CC50/EC50) [16]: 16
- EC50 [16]: 21 µM
- CC50 [17]: 330 µM

Structure (SMILES): C[C@@]1(CO)CC[C@H](n2cnc3c(N)ncnc32)O1 [C00003 Ad]
- SI (CC50/EC50) [16]: 13
- EC50 [16]: 30 µM
- CC50 [17]: 400 µM

Structure (SMILES): C[C@@]1(CO)CC[C@H](n2ccc(N)nc2=O)O1 [C00003 Cy]
- SI (CC50/EC50) [16]: 1
- EC50 [16]: 27 µM
- CC50 [17]: 27 µM

Structure (SMILES): Cc1cn([C@H]2CC[C@@](C)(CO)O2)c(=O)[nH]c1=O [C00003 Th]
- SI (CC50/EC50) [16]: ∼1
- EC50 [16]: > 500 µM
- CC50 [17]: > 500 µM

Structure (SMILES): N#C[C@]1(CO)O[C@@H](n2cnc3c(N)nc(N)nc32)C[C@@H]1O [C00004 2AA]
- EC50 ([1]; Table 3): 0.00079 µM
- CC50 ([2]; Table 3): 0.034 µM

Structure (SMILES): N#C[C@]1(CO)O[C@@H](n2cnc3c(N)ncnc32)C[C@@H]1O [C00004 A]
- EC50 ([1]; Table 3): 0.051 µM
- CC50 ([2]; Table 3): 12 µM

Structure (SMILES): N#C[C@]1(CO)O[C@@H](n2cnc3c(=O)[nH]c(N)nc32)C[C@@H]1O [C00004 G]
- EC50 ([1]; Table 3): 0.000188 µM
- CC50 ([2]; Table 3): 0.034 µM

Structure (SMILES): N#C[C@]1(CO)O[C@@H](n2cnc3c(O)ncnc32)C[C@@H]1O [C00004 I]
- EC50 ([1]; Table 3): 0.051 µM
- CC50 ([2]; Table 3): 23 µM

Structure (SMILES): C#C[C@]1(CO)O[C@@H](n2ccc(N)nc2=O)C[C@@H]1O [L-4′-C-ethynyl-2′-deoxycytidine]
- EC50 ([1]; Table 2): > 400 µM

Structure (SMILES): Nc1ccn([C@H]2CC[C@@H](CO)O2)c(=O)n1 [ddC, reference compound]
- EC50 [6]: 0.2 µM
- EC50 [7]: 3 µM
- EC50 [8]: 1.5 µM
- EC50 [10]: 2.2 µM
- EC50 [12]: 1.3 µM
- EC50 [13]: 5.5 µM
- CC50 [14]: > 100 µM

Structure (SMILES): O=c1[nH]cnc2c1ncn2[C@H]1CC[C@@H](CO)O1 [ddI, reference compound]
- EC50 [6]: 3.9 µM
- EC50 [7]: 12.7 µM
- EC50 [8]: 19.5 µM
- EC50 [9]: 3.6 µM
- EC50 [10]: 10.1 µM
- EC50 [12]: 12.2 µM
- EC50 [13]: 25 µM
- CC50 [14]: > 100 µM
